The structures appear in SMILES notation. Where a name gives a salt, the structure may show the parent alone.

Among the data in patent US10329295B2, “Pyrrolotriazine inhibitors of IRAK4 activity” (MERCK SHARP & DOHME CORP., priority 2015, dated 2019) are IC50 values, retold here.

Chain of GST tagged IRAK4 (Q9NWZ3 whole entry): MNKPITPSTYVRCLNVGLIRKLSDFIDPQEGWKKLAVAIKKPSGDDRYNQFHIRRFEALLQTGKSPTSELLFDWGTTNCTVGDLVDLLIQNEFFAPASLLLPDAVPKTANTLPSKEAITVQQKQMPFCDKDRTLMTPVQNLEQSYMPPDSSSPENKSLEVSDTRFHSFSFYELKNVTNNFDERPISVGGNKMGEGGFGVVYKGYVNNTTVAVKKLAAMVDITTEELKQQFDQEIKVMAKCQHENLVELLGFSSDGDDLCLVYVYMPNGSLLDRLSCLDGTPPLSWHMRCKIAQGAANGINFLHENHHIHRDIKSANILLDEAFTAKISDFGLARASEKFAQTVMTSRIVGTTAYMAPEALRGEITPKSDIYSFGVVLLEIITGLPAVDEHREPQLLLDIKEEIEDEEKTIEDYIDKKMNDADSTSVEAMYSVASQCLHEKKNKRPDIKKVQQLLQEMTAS

The target in this assay is GST tagged IRAK4 (Homo sapiens (Human), UniProt Q9NWZ3). Kind of assay: IRAK4 Kinase Assay (IMAP fluorescence polarization). The assay is classed as biochemical. To be noted: 0.5 nM GST tagged IRAK4, 100 μM ATP, 30 minutes at 25° C. A digest of the protocol:
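Reactions contained 0.5 nM GST-IRAK4, 100 nM fluorescent peptide substrate and 100 μM ATP in 10 mM Tris-HCl pH 7.2 with 1 mM MgCl2, and were started with ATP. After 30 minutes at 25° C they were stopped with IMAP reagent. Substrate phosphorylation was read as the change in fluorescence polarization.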
On the technique in general: Polarisation of emitted light reports the rotation of a fluorescent probe.
What is called IC50 is the concentration needed to halve the response being measured. Higher therefore signals a need for much substance. With `N#Cc1ccccc1NC(=O)c1ccc2cnc(N3CCC[C@@H](N)C3)nn12` [Example 51, 2-[(3R)-3-aminopiperidin-1-yl]-N-(2-cyanophenyl)pyrrolo[2,1-f][1,2,4]triazine-7-carboxamide trifluoroacetate], the IC50 is 157 nM.
As to `N#Cc1ccccc1NC(=O)c1ccc2cnc(N[C@@H]3CCCNC3)nn12` [Example 52, N-(2-cyanophenyl)-2-[(3R)-piperidin-3-ylamino]pyrrolo[2,1-f][1,2,4]triazine-7-carboxamide trifluoroacetate], it took 26 nM to reach half-maximal inhibition (IC50).
The same measure for `N[C@H]1CCCC[C@H]1Nc1ncc2ccc(C(=O)Nc3ccccc3C(F)F)n2n1` [Example 56, 2-{[(1R,2S)-2-aminocyclohexyl]amino}-N-[2-(difluoromethyl)phenyl]-pyrrolo[2,1-f][1,2,4]triazine-7-carboxamide trifluoroacetate]: 88 nM.
In turn, `O=C(Nc1ccccc1C(F)F)c1ccc2cnc(N3CCCNCC3)nn12` [Example 57, 2-(1,4-diazepan-1-yl)-N-[2-(difluoromethyl)phenyl]-pyrrolo[2,1-f][1,2,4]triazine-7-carboxamide trifluoroacetate] registered an IC50 of 6560 nM.
The same measure for `N#Cc1ccccc1NC(=O)c1ccc2cnc(N3CCNCC3)nn12` [Example 58, N-(2-cyanophenyl)-2-piperazin-1-ylpyrrolo[2,1-f][1,2,4]triazine-7-carboxamide trifluoroacetate]: 1910 nM; for `N#Cc1ccccc1NC(=O)c1ccc2cnc(N3CCCNCC3)nn12` [Example 59, N-(2-cyanophenyl)-2-(1,4-diazepan-1-yl)pyrrolo[2,1-f][1,2,4]triazine-7-carboxamide trifluoroacetate]: 4270 nM; for `Cn1cc(NC(=O)c2ccc3cnc(N[C@@H]4CCCC[C@@H]4N)nn23)c(Br)n1` [Example 66, 2-{[(1R,2S)-2-aminocyclohexyl]amino}-N-(3-bromo-1-methyl-1H-pyrazol-4-yl)pyrrolo[2,1-f][1,2,4]triazine-7-carboxamide trifluoroacetate]: 1 nM.
For the molecule `Cn1cc(NC(=O)c2ccc3cnc(N4CCCNCC4)nn23)c(Br)n1` [Example 67, N-(3-bromo-1-methyl-1H-pyrazol-4-yl)-2-(1,4-diazepan-1-yl)pyrrolo[2,1-f][1,2,4]triazine-7-carboxamide trifluoroacetate], the IC50 amounted to 39 nM.
On to `Cn1ncc(NC(=O)c2ccc3cnc(N[C@@H]4CCCC[C@@H]4N)nn23)c1C(F)(F)F` [Example 70, 2-{[(1R,2S)-2-aminocyclohexyl]amino}-N-[1-methyl-5-(trifluoromethyl)-1H-pyrazol-4-yl]pyrrolo[2,1-f][1,2,4]triazine-7-carboxamide trifluoroacetate], for which the IC50 stood at 26 nM.
In the case of `N#Cc1ccccc1NC(=O)c1ccc2cnc(N[C@@H]3CCCC[C@@H]3O)nn12` [Example 71, N-(2-cyanophenyl)-2-{[(1R,2S)-2-hydroxycyclohexyl]amino}-pyrrolo[2,1-f][1,2,4]triazine-7-carboxamide], the IC50 amounted to 661 nM.
Molecule `N#Cc1ccccc1NC(=O)c1ccc2cnc(N3CCNCC4(CC4)C3)nn12` [Example 76, N-(2-cyanophenyl)-2-(5,8-diazaspiro[2.6]non-5-yl)pyrrolo[2,1-f][1,2,4]triazine-7-carboxamide trifluoroacetate] returned an IC50 of 970 nM.
The figure for `Cn1cc(NC(=O)c2ccc3cnc(N[C@@H]4CCCC(F)(F)[C@@H]4N)nn23)c(Cl)n1` [Example 79, 2-{[(1R,2R)-2-amino-3,3-difluorocyclohexyl]amino}-N-(3-chloro-1-methyl-1H-pyrazol-4-yl)pyrrolo[2,1-f][1,2,4]triazine-7-carboxamide trifluoroacetate] is 229 nM; for `Cn1cc(NC(=O)c2ccc3cnc(N4CC5CCC(C4)N5)nn23)c(C(F)(F)F)n1` [Example 82, 2-(3,8-diazabicyclo[3.2.1]oct-3-yl)-N-[1-methyl-3-(trifluoromethyl)-1H-pyrazol-4-yl]pyrrolo[2,1-f][1,2,4]triazine-7-carboxamide trifluoroacetate] it is 32 nM.
`Cn1cc(NC(=O)c2ccc3cnc(N4CC5CCC(C4)N5)nn23)c(C(F)F)n1` [Example 83, 2-(3,8-diazabicyclo[3.2.1]oct-3-yl)-N-[3-[difluoromethyl)-1-methyl-1H-pyrazol-4-yl]pyrrolo[2,1-f][1,2,4]triazine-7-carboxamide trifluoroacetate]: the IC50 worked out at 2 nM.
For `O=C(Nc1ccsc1C(F)(F)F)c1ccc2cnc(N3CCCNCC3)nn12` [Example 85, 2-(1,4-diazepan-1-yl)-N-[2-(trifluoromethyl)thiophen-3-yl]pyrrolo[2,1-f][1,2,4]triazine-7-carboxamide trifluoroacetate], inhibition was half-maximal at 2640 nM (IC50).
The molecule `N[C@H]1CCCC[C@H]1Nc1ncc2ccc(C(=O)Nc3ccsc3C(F)(F)F)n2n1` [Example 88, 2-{[(1R,2S)-2-aminocyclohexyl]amino}-N-[2-(trifluoromethyl)thiophen-3-yl]pyrrolo[2,1-f][1,2,4]triazine-7-carboxamide trifluoroacetate] registered an IC50 of 58 nM.
The same measure for `Cn1cc(NC(=O)c2ccc3cnc(N[C@@H]4CCCC(F)(F)[C@@H]4N)nn23)c(Br)n1` [Example 89, 2-{[(1R,2R)-2-amino-3,3-difluorocyclohexyl]amino}-N-(3-bromo-1-methyl-1H-pyrazol-4-yl)pyrrolo[2,1-f][1,2,4]triazine-7-carboxamide trifluoroacetate]: 373 nM; for `Cn1cc(NC(=O)c2ccc3cnc(N[C@@H]4CCCC(F)(F)[C@@H]4N)nn23)c(C(F)F)n1` [Example 92, 2-{[(1R,2R)-2-amino-3,3-difluorocyclohexyl]amino}-N-[3-(difluoromethyl)-1-methyl-1H-pyrazol-4-yl]pyrrolo[2,1-f][1,2,4]triazine-7-carboxamide trifluoroacetate]: 46 nM; for `N[C@@H]1[C@H](Nc2ncc3ccc(C(=O)Nc4cscc4C(F)F)n3n2)CCCC1(F)F` [Example 93, 2-{[(1R,2R)-2-amino-3,3-difluorocyclohexyl]amino}-N-[4-(difluoromethyl)thiophen-3-yl]pyrrolo[2,1-f][1,2,4]triazine-7-carboxamide trifluoroacetate]: 298 nM.
`N[C@@H]1[C@H](Nc2ncc3ccc(C(=O)Nc4ccsc4Br)n3n2)CCCC1(F)F` [Example 94, 2-{[(1R,2R)-2-amino-3,3-difluorocyclohexyl]amino}-N-(2-bromothiophen-3-yl)pyrrolo[2,1-f][1,2,4]triazine-7-carboxamide trifluoroacetate]: the IC50 turned out to be 4150 nM.
The same measure for `N[C@@H]1[C@H](Nc2ncc3ccc(C(=O)Nc4ccsc4C(F)(F)F)n3n2)CCCC1(F)F` [Example 95, 2-{[(1R,2R)-2-amino-3,3-difluorocyclohexyl]amino}-N-[2-(trifluoromethyl)thiophen-3-yl]pyrrolo[2,1-f][1,2,4]triazine-7-carboxamide trifluoroacetate]: 4700 nM.
The same measure for `Cn1cc(NC(=O)c2ccc3cnc(N4C5CCC4CNC5)nn23)c(C(F)(F)F)n1` [Example 96, 2-(3,8-diazabicyclo[3.2.1]oct-8-yl)-N-[1-methyl-3-(trifluoromethyl)-1H-pyrazol-4-yl]pyrrolo[2,1-f][1,2,4]triazine-7-carboxamide trifluoroacetate]: 5 nM.
